Assay results published in article PMC8307317, “Point-Substitution of Phenylalanine Residues of 26RFa Neuropeptide: A Structure-Activity Relationship Study” (Molecules, 2021).
Like-named read-outs stand apart in the source and are kept apart here. Starred links: 1 amine or outer side, 2 acyl side, 3 side chain; linkers in the order of their positions; H or OH if unused. Positions of bridges follow the written chain, without caps; N, C: chain ends. Non-standard residues stand in square brackets, D forms with d. Residues, ends and D or L forms follow the SMILES beside them. *: point of attachment. Ahppa(3S,4S) = O=C(C[C@H](O)[C@H](Cc1ccccc1)N[*:1])[*:2]; Oic = O=C(O)[C@@H]1C[C@@H]2CCCC[C@@H]2N1; X7 = O=C(C(c1ccc(C(F)(F)F)cc1)N1CCNCC1)*; X9 = NC(=O)C[C@H](O)[C@H](Cc1ccccc1)N*; X3 = O=C(C(c1cccc(F)c1)N1CCNCC1)*; X6 = O=C(C(c1ccc(F)cc1)N1CCNCC1)*; X8 = O=C(C(c1ccccc1F)N1CCNCC1)*; dTic = O=C(O)[C@H]1Cc2ccccc2CN1; X2 = O=C(C(c1ccccc1)N1CCNCC1)*; Nphe = O=C(O)CNCc1ccccc1

Target: T1, human QRFPR (hQRFPR) (Homo sapiens, UniProt Q96P65)
T1 construct: expressed in transfected cells; host or cells: CHO cells, stably transfected with hQRFPR (G418 selection) and Gα16 (hygromycin B selection)
T1 sequence (Q96P65 1-431): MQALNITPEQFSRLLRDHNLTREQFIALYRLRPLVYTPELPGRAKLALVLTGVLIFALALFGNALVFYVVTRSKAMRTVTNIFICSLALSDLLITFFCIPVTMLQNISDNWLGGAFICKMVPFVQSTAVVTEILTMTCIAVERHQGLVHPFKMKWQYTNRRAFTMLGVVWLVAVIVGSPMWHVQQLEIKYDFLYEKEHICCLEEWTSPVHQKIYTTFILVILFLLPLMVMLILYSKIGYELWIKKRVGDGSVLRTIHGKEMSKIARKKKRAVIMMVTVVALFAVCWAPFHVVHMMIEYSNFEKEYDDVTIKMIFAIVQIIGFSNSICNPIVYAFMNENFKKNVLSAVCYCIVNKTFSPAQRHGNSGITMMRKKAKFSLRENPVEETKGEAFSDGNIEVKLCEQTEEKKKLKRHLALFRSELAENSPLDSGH
Assay: Calcium mobilization assay, agonist mode ([Ca2+]i in Gα16-hQRFPR-transfected CHO cells)
Assay type: cell-based
Procedure: Stably transfected hQRFPR CHO cells were obtained as previously described. The cells were maintained in F-12 nutrient mixture (Ham-F12) medium supplemented with 10% fetal bovine serum, 2 mM glutamine, and penicillin-streptomycin. Expression of Gα16 cells was maintained using selection antibiotic hygromycin B (200 µg/mL) and that of hQRFPR using geneticin G418 (500 µg/mL) (Life Technologies, Villebon-Sur-Yvette, France) in a humidified 5% CO2 atmosphere at 37 °C.
Changes in intracellular Ca^2+ concentrations induced by 26RFa(20–26) analogs in CHO-Gα16-hQRFPR-transfected cells were measured on a benchtop scanning fluorometer Flexstation III (Molecular Devices, Sunnyvale, CA, USA) as previously described. Briefly, 96-well assay black plates with clear bottoms (Corning international, Avon, France) were seeded at a density of 40,000 cells/well 24 h prior to assay. For profiling agonistic experiments, cells were loaded with 2 µM Fluo-4 acetoxymethyl ester (AM) (Invitrogen) for 1 h in the presence of 0.01% pluronic acid, washed thrice, and incubated for 30 min with standard HBSS containing 2.5 mM probenecid and 5 mM HEPES. Compounds to be tested were added at final concentrations ranging from 10^−11 to 10^−5 M in HBSS, and the fluorescence intensity was measured during 3 min. To evaluate the antagonistic potency of the test compounds, cells were incubated with each compound over 15 min after Fluo-4 AM loading. Then, during fluorescence recording, a pulse of 26RFa was administered at a final concentration of 10^−7 M. After subtraction of the mean fluorescence background, the baseline was normalized to 100%. Fluorescence peak values were determined for each concentration of compound.
Calcium experiments were performed in triplicate, and data, expressed as mean ± SEM of at least three distinct experiments, were analyzed with the Prism 8.0 software (Graphpad Software, San Diego, CA, USA). EC50 and the IC50 values were determined from concentration–response curves using a sigmoidal dose–response fit with variable slope from at least three independent determinations. Differences between 26RFa(20–26) and analog activities were analyzed by the Mann–Whitney test. p values < 0.05 were considered significant.

[1] = [Ca2+]i mobilization in Gα16-hQRFPR-transfected CHO cells, mean of at least three independent experiments performed in triplicate, read-out: EC50

| EC50 [1] [µM] | EC50 (single prototype curve, triplicate, basal [Ca2+]i mobilization, read-out: EC50 calculated from representative dose–response curves (Figure 3)) [µM] | SMILES |
| --- | --- | --- |
| > 10 |  | N=C(N)NCCC[C@H](NC(=O)[C@H](Cc1ccccc1)NC(=O)[C@H](CO)NC(=O)[C@H](Cc1ccccc1)NC(=O)CNC(=O)CN)C(=O)N1[C@H](C(N)=O)C[C@@H]2CCCC[C@@H]21 [Compound 45, [Oic^26]26RFa(20–26)] (H-GGFSFR[Oic]-NH2) |
| > 10 |  | N=C(N)NCCC[C@H](NC(=O)[C@@H]1CSSC[C@H](NC(=O)CNC(=O)CN)C(=O)N[C@@H](CO)C(=O)N1)C(=O)N[C@@H](Cc1ccccc1)C(N)=O [Compound 46, [Cys^22,24]26RFa(20–26)] (H-GGCSCRF-NH2; disulfide 3-5) |
| > 10 |  | N=C(N)NCCC[C@@H]1NC(=O)[C@H](Cc2ccccc2)NC(=O)[C@H](CO)NC(=O)[C@@H](NC(=O)CNC(=O)CN)CSSC[C@@H](C(N)=O)NC1=O [Compound 47, [Cys^22,26]26RFa(20–26)] (H-GGCSFRC-NH2; disulfide 3-7) |
| > 10 |  | N=C(N)NCCC[C@@H]1NC(=O)[C@@H](NC(=O)[C@H](CO)NC(=O)[C@H](Cc2ccccc2)NC(=O)CNC(=O)CN)CSSC[C@@H](C(N)=O)NC1=O [Compound 48, [Cys^24,26]26RFa(20–26)] (H-GGFSCRC-NH2; disulfide 5-7) |
| > 10 |  | N=C(N)NCCC[C@H](NC(=O)[C@H](Cc1ccccc1)NC(=O)[C@H](CO)NC(=O)C(c1ccccc1)N1CCNCC1)C(=O)N[C@@H](Cc1ccccc1)C(N)=O (stereo partly shown) [Compound 49, [Cmpi(Phg)^22]26RFa(22–26)] (X2-SFRF-NH2) |
| > 10 |  | N=C(N)NCCC[C@H](NC(=O)[C@H](Cc1ccccc1)NC(=O)[C@H](CO)NC(=O)C(c1ccccc1)N1CCNCC1)C(=O)N[C@@H](Cc1ccccc1)C(N)=O (stereo partly shown) [Compound 50, [Cmpi(Phg)^22]26RFa(22–26)] (X2-SFRF-NH2) |
| 4.05 |  | N=C(N)NCCC[C@H](NC(=O)[C@H](Cc1ccccc1)NC(=O)[C@H](CO)NC(=O)C(c1ccc(F)cc1)N1CCNCC1)C(=O)N[C@@H](Cc1ccccc1)C(N)=O (stereo partly shown) [Compound 51, [Cmpi(4-FPhg)^22]26RFa(22–26)] (X6-SFRF-NH2) |
| 1.66 |  | N=C(N)NCCC[C@H](NC(=O)[C@H](Cc1ccccc1)NC(=O)[C@H](CO)NC(=O)C(c1ccc(F)cc1)N1CCNCC1)C(=O)N[C@@H](Cc1ccccc1)C(N)=O (stereo partly shown) [Compound 52, [Cmpi(4-FPhg)^22]26RFa(22–26)] (X6-SFRF-NH2) |
| 3.56 |  | N=C(N)NCCC[C@H](NC(=O)[C@H](Cc1ccccc1)NC(=O)[C@H](CO)NC(=O)C(c1cccc(F)c1)N1CCNCC1)C(=O)N[C@@H](Cc1ccccc1)C(N)=O (stereo partly shown) [Compound 53, [Cmpi(3-FPhg)^22]26RFa(22–26)] (X3-SFRF-NH2) |
| 2.71 |  | N=C(N)NCCC[C@H](NC(=O)[C@H](Cc1ccccc1)NC(=O)[C@H](CO)NC(=O)C(c1cccc(F)c1)N1CCNCC1)C(=O)N[C@@H](Cc1ccccc1)C(N)=O (stereo partly shown) [Compound 54, [Cmpi(3-FPhg)^22]26RFa(22–26)] (X3-SFRF-NH2) |
| 2.48 |  | N=C(N)NCCC[C@H](NC(=O)[C@H](Cc1ccccc1)NC(=O)[C@H](CO)NC(=O)C(c1ccccc1F)N1CCNCC1)C(=O)N[C@@H](Cc1ccccc1)C(N)=O (stereo partly shown) [Compound 55, [Cmpi(2-FPhg)^22]26RFa(22–26)] (X8-SFRF-NH2; N-terminus assumed) |
| > 10 |  | N=C(N)NCCC[C@H](NC(=O)[C@H](Cc1ccccc1)NC(=O)[C@H](CO)NC(=O)C(c1ccccc1F)N1CCNCC1)C(=O)N[C@@H](Cc1ccccc1)C(N)=O (stereo partly shown) [Compound 56, [Cmpi(2-FPhg)^22]26RFa(22–26)] (X8-SFRF-NH2) |
| > 10 |  | N=C(N)NCCC[C@H](NC(=O)[C@H](Cc1ccccc1)NC(=O)[C@H](CO)NC(=O)C(c1ccc(C(F)(F)F)cc1)N1CCNCC1)C(=O)N[C@@H](Cc1ccccc1)C(N)=O (stereo partly shown) [Compound 57, [Cmpi(4-TfmPhg)^22]26RFa(22–26)] (X7-SFRF-NH2) |
| > 10 |  | N=C(N)NCCC[C@H](NC(=O)[C@H](Cc1ccccc1)NC(=O)[C@H](CO)NC(=O)C(c1ccc(C(F)(F)F)cc1)N1CCNCC1)C(=O)N[C@@H](Cc1ccccc1)C(N)=O (stereo partly shown) [Compound 58, [Cmpi(4-TfmPhg)^22]26RFa(22–26)] (X7-SFRF-NH2) |

Continued, molecule first:

| SMILES | EC50 [1] [µM] | EC50 (single prototype curve, triplicate, basal [Ca2+]i mobilization, read-out: EC50 calculated from representative dose–response curves (Figure 3)) [µM] |
| --- | --- | --- |
| N=C(N)NCCC[C@H](NC(=O)[C@H](Cc1ccccc1)NC(=O)[C@H](CO)NC(=O)CN(Cc1ccccc1)C(=O)CNC(=O)CN)C(=O)N[C@@H](Cc1ccccc1)C(N)=O [Compound 31, [NPhe^22]26RFa(20–26)] (H-GG[Nphe]SFRF-NH2) | 0.578 | 0.149 |
| N=C(N)NCCC[C@H](NC(=O)CN(Cc1ccccc1)C(=O)[C@H](CO)NC(=O)[C@H](Cc1ccccc1)NC(=O)CNC(=O)CN)C(=O)N[C@@H](Cc1ccccc1)C(N)=O [Compound 32, [NPhe^24]26RFa(20–26)] (H-GGFS[Nphe]RF-NH2) | > 10 |  |
| N=C(N)NCCC[C@H](NC(=O)[C@H](Cc1ccccc1)NC(=O)[C@H](CO)NC(=O)[C@H](Cc1ccccc1)NC(=O)CNC(=O)CN)C(=O)N(CC(N)=O)Cc1ccccc1 [Compound 33, [NPhe^26]26RFa(20–26)] (H-GGFSFR[Nphe]-NH2) | > 10 |  |
| N=C(N)NCCC[C@H](NC(=O)[C@H](Cc1ccccc1)NC(=O)[C@H](CO)NC(=O)C[C@H](O)[C@H](Cc1ccccc1)NC(=O)CNC(=O)CN)C(=O)N[C@@H](Cc1ccccc1)C(N)=O [Compound 34, [AHPPA^22]26RFa(20–26)] (H-GG[Ahppa(3S,4S)]SFRF-NH2) | 2.85 |  |
| N=C(N)NCCC[C@H](NC(=O)C[C@H](O)[C@H](Cc1ccccc1)NC(=O)[C@H](CO)NC(=O)[C@H](Cc1ccccc1)NC(=O)CNC(=O)CN)C(=O)N[C@@H](Cc1ccccc1)C(N)=O [Compound 35, [AHPPA^24]26RFa(20–26)] (H-GGFS[Ahppa(3S,4S)]RF-NH2) | > 10 |  |
| N=C(N)NCCC[C@H](NC(=O)[C@H](Cc1ccccc1)NC(=O)[C@H](CO)NC(=O)[C@H](Cc1ccccc1)NC(=O)CNC(=O)CN)C(=O)N[C@@H](Cc1ccccc1)[C@@H](O)CC(N)=O [Compound 36, [AHPPA^26]26RFa(20–26)] (H-GGFSFR-X9) | > 10 |  |
| N=C(N)NCCC[C@H](NC(=O)[C@H](Cc1ccccc1)NC(=O)[C@H](CO)NC(=O)[C@@H](Cc1c[nH]c2ccccc12)NC(=O)CNC(=O)CN)C(=O)N[C@@H](Cc1ccccc1)C(N)=O [Compound 37, [DTrp^22]26RFa(20–26)] (H-GG[dW]SFRF-NH2) | 6.16 |  |
| N=C(N)NCCC[C@H](NC(=O)[C@@H](Cc1c[nH]c2ccccc12)NC(=O)[C@H](CO)NC(=O)[C@H](Cc1ccccc1)NC(=O)CNC(=O)CN)C(=O)N[C@@H](Cc1ccccc1)C(N)=O [Compound 38, [DTrp^24]26RFa(20–26)] (H-GGFS[dW]RF-NH2) | > 10 |  |
| N=C(N)NCCC[C@H](NC(=O)[C@H](Cc1ccccc1)NC(=O)[C@H](CO)NC(=O)[C@H]1Cc2ccccc2CN1C(=O)CNC(=O)CN)C(=O)N[C@@H](Cc1ccccc1)C(N)=O [Compound 40, [DTic^22]26RFa(20–26)] (H-GG[dTic]SFRF-NH2) | 4.99 |  |
| N=C(N)NCCC[C@H](NC(=O)[C@H]1Cc2ccccc2CN1C(=O)[C@H](CO)NC(=O)[C@H](Cc1ccccc1)NC(=O)CNC(=O)CN)C(=O)N[C@@H](Cc1ccccc1)C(N)=O [Compound 41, [DTic^24]26RFa(20–26)] (H-GGFS[dTic]RF-NH2) | 6.2 |  |
| N=C(N)NCCC[C@H](NC(=O)[C@H](Cc1ccccc1)NC(=O)[C@H](CO)NC(=O)[C@H](Cc1ccccc1)NC(=O)CNC(=O)CN)C(=O)N1Cc2ccccc2C[C@@H]1C(N)=O [Compound 42, [DTic^26]26RFa(20–26)] (H-GGFSFR[dTic]-NH2) | > 10 |  |
| N=C(N)NCCC[C@H](NC(=O)[C@H](Cc1ccccc1)NC(=O)[C@H](CO)NC(=O)[C@@H]1C[C@@H]2CCCC[C@@H]2N1C(=O)CNC(=O)CN)C(=O)N[C@@H](Cc1ccccc1)C(N)=O [Compound 43, [Oic^22]26RFa(20–26)] (H-GG[Oic]SFRF-NH2) | > 10 |  |
| N=C(N)NCCC[C@H](NC(=O)[C@@H]1C[C@@H]2CCCC[C@@H]2N1C(=O)[C@H](CO)NC(=O)[C@H](Cc1ccccc1)NC(=O)CNC(=O)CN)C(=O)N[C@@H](Cc1ccccc1)C(N)=O [Compound 44, [Oic^24]26RFa(20–26)] (H-GGFS[Oic]RF-NH2) | > 10 |  |
